Earlier results in US6676966B1, “Extended release metformin hydrochloride formulations” (Intellipharmaceutics Corp., priority 2000, dated 2004).
Counter-ions that a name gives are not always drawn.

Details: single 850 mg immediate release tablet with food vs same tablet without food

For `CN(C)C(=N)N=C(N)N` [metformin, Metformin hydrochloride], the “lower AUC in plasma with food” value is listed as 25%, the “lower peak concentration in plasma with food” value is listed as about 40% and the “prolongation of time to peak plasma concentration with food” value is listed as 35 min.
